Experimental data reported in US20260174791A1, “MACROPHAGE MIGRATION INHIBITORY FACTOR (MIF) TARGETING FOR THE TREATMENT OF NON-SMALL CELL LUNG CANCER” (Board of Regents, The University of Texas System, priority 2022, published 2026).

What was measured:
[1] = test system: lung cancer patients, EGFR or KRAS mutation; conditions: patients who harbor an EGFR mutation; cited from earlier work
[2] = test system: NSCLC patients with STK11/LKB1 and/or KEAP1 mutations; assay: Clinical data, pembrolizumab plus first-line chemotherapy in NSCLC patients; format: in vivo, human
Text: FIG. 1A is a graph illustrating response rates to pemetrexed/platin/pembrolizumab (PCP) chemo-immunotherapy in STK11 and KEAP1-defined wild type (wt) and mutant subgroups. FIG. 1B is a graph illustrating response rates to pemetrexed/platin/pembrolizumab (PCP) chemo-immunotherapy in STK11 and KEAP1-defined wild type (wt) and mutant subgroups. […] FIG. 1D a Kaplan-Mayer graph illustrating overall survival of STK11/LKB1 and KEAP1 mutant or wt defined patients.

Molecule | response rate [1] [%] | refractory disease on pembrolizumab plus standard care first-line chemotherapies ([2]; NSCLC patients (n=139), STK11/LKB1 and/or KEAP1 mutant vs wild type) | clinical benefit (survival) of adding pembrolizumab to chemotherapy ([2]; patients with STK11 and/or KEAP1 genomic alterations, vs chemotherapy alone)
C#Cc1cccc(Nc2ncnc3cc(OCCOC)c(OCCOC)cc23)c1 [erlotinib] | 60 |  | 
pembrolizumab |  | higher percentage of patients with refractory diseases | did not result in clinical benefit
